Experimental data published in patent US20260266834A1, “Compositions And Methods For Detecting Proteins In Protein Corona” (Board of Trustees of Michigan State University, priority 2023, published 2026).

Biological target: T1, albumin (Homo sapiens, UniProt P02768)
T1 construct: commercial pooled healthy human plasma diluted to 55% by PBS; from tissue; host or cells: commercial pooled healthy human plasma
Assay: Abundance of albumin in protein corona proteome by LC-MS/MS
Settings: PtdChos 1000 μg/ml; plasma alone over 81%
Description: For protein corona formation in the presence of small molecules, commercial pooled healthy human plasma diluted to 55% by PBS was first incubated with the individual small molecules or a combination of small molecules at varying concentrations (i.e., 10, 100, and 1,000 μg/ml) for 1 hour at 37° C., allowing the small molecules to interact with the biological matrix. The small molecule combinations included each of the four small molecules (glucose, triacylglycerols, diacylglycerols, and PtdChos for combination 1; PE, PtdIns, IMP, and vitamin B complex for combination 2) at the given concentration. […]
Initial processing: NPs coated with protein corona were first washed with PBS and then resuspended in 30 μl of PBS, enriched with 15 mM phosphate (pH 7.4). The bound total protein content was estimated to be around 1 μg per sample, determined via a Micro BCA™ assay (Thermo Scientific™). […]
LC-MS/MS Analysis: Dried samples were reconstituted with 1 μg of peptides in 25 μl of liquid chromatography (LC) loading buffer (3% acetonitrile (ACN), 0.1% trifluoroacetic acid (TFA)) and analyzed using LC-MS/MS. A 60-minute gradient was applied in the label-free quantification (LFQ) mode, with 5 μl aliquots injected in triplicate. Control samples (55% human plasma) were prepared with 8 μg of peptides in 200 μl of loading buffer and analyzed similarly. […]

T1 sequence (P02768 25-609): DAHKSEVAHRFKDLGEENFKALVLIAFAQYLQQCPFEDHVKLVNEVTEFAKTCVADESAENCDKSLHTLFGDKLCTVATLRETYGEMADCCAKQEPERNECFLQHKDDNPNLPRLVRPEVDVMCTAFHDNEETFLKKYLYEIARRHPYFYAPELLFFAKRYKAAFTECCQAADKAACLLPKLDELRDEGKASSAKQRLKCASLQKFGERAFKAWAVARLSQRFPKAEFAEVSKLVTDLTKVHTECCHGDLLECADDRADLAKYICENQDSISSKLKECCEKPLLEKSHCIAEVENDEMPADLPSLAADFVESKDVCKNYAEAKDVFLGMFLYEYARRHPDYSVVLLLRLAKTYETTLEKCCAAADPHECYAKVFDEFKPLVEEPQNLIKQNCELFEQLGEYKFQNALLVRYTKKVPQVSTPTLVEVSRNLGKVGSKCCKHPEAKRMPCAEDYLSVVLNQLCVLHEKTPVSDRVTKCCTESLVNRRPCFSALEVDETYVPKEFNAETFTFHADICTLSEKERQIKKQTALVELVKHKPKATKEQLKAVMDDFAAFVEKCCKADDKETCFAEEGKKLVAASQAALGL

phosphatidylcholine [PtdChos]
albumin representation (share of proteins): around 17%
